Source: patent US20240300944A1, “NOVEL UREA DERIVATIVE COMPOUND AS RON INHIBITOR” (LG CHEM, LTD., priority 2021, published 2024)

Experiments:
RON = RON (Homo sapiens, UniProt Q04912); assay: Inhibitory activity against RON, TR-FRET kinase assay; format: biochemical; conditions: RON enzyme
Protocol: In order to measure the inhibitory activity of each of the compounds of Examples against RON, the IC50 of each of the compounds was measured using a Time-Resolved Fluorescence Energy Transfer Chemistry (TR-FRET).
(§1) Specifically, the compound was prepared to a concentration of 1 mM with 100% DMSO and was diluted 10 times in a stepwise manner through 3-fold dilution. 2 ul of the compound diluted in a stepwise manner was added to a 96-well-plate containing 48 ul of a 1× kinase reaction buffer (50 mM HEPES (pH 7.4), 0.01% Tween-20, 5 mM DTT, 0.5 mM Na3VO4, 2 mM EGTA, 10 mM MgCl2).
The RON protein was diluted to a concentration of 49.3 nM with an RON storage buffer (50 mM Tris-HCl (pH 7.5), 150 mM NaCl, 0.5 mM EDTA, 0.02% Triton X-100), and then diluted again to a concentration of 0.4 nM with a 1× kinase reaction buffer. As a substrate cocktail, a RON-specific substrate mixture (40 uM ULight-labeled Poly GT, 100 nM ATP) at a concentration 2 times the final reaction concentration.
Thereafter, a 384-well-plate was prepared, and 2.5 ul of each of the diluted compounds of Examples was added to a corresponding well of experimental group wells, and 2.5 ul of a 4% DMSO solution was dispensed into high control wells and low control wells.
(§2) Thereafter, 2.5 μL of 0.4 nM RON was dispensed into the high control wells and the experimental group wells, and 2.5 μL of a 1× kinase reaction buffer was added to the low control wells, and the RON and the reaction buffer were centrifuged at room temperature for 40 seconds at 1000 RPM, and then incubated at room temperature for 20 to 30 minutes. Then, 5 μL of a substrate cocktail (2×) was dispensed into all wells, centrifuged at room temperature for 40 seconds at 1000 RPM, and then incubated at room temperature for 60 minutes. Thereafter, 5 μL of 30 mM EDTA was added to all wells to terminate the reaction, and then incubated again at room temperature for 5 minutes. Thereafter, 5 μL of a 4× phosphotyrosine antibody (Perkin Elmer) containing europium was added to all wells, and then incubated at room temperature for 60 minutes. After the incubation, the 384-well-plate was read with a Vison plate reader. At this time, the excitation wavelength was 340 nm, and the emission wavelength was 620 nm and 665 nm. The IC50 value of the compound of each Example was derived using the GraphPd Prism7 program.

cMET = cMET (Homo sapiens, UniProt P08581); assay: Inhibitory activity against MET (cMET), TR-FRET kinase assay; format: biochemical; conditions: cMET enzyme
Chain of cMET (P08581 25-1390): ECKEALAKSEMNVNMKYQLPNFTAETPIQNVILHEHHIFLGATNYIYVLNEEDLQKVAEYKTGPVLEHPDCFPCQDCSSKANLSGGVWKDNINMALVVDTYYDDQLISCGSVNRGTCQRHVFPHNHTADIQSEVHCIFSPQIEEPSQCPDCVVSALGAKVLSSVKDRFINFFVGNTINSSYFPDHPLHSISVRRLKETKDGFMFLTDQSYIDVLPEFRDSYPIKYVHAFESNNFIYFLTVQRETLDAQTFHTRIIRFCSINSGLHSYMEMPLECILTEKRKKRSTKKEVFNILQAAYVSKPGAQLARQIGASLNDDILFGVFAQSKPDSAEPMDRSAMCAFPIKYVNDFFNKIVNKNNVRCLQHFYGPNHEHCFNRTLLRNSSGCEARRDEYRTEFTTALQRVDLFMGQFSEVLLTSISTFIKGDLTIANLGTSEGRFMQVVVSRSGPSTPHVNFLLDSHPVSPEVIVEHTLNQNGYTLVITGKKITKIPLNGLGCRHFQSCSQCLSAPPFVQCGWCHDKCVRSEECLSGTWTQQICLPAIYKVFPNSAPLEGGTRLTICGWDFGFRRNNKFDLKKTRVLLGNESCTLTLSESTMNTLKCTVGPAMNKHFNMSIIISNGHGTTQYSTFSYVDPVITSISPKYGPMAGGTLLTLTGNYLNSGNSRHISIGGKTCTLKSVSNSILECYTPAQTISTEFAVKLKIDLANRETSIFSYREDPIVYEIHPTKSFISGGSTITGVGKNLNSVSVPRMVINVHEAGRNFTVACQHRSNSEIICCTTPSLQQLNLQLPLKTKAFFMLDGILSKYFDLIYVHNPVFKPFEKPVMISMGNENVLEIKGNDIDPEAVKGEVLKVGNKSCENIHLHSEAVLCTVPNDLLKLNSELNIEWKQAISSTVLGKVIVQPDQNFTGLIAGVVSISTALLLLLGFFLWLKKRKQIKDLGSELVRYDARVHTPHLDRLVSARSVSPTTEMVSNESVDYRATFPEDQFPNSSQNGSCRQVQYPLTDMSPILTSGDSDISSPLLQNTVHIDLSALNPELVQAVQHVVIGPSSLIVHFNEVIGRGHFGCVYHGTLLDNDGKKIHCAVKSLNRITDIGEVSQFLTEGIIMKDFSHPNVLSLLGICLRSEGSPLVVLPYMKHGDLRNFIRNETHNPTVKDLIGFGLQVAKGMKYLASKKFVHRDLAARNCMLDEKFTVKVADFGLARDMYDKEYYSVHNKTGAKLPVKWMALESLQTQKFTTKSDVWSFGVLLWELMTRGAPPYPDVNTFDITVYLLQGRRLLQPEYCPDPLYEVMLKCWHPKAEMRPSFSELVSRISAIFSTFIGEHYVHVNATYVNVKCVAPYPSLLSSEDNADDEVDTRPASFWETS
Protocol: In addition, in order to measure the enzyme activity inhibition for cMET, the evaluation was performed in the same manner as the enzyme activity inhibition measurement experiment for the RON.
as §1, with “7.4), 0.05% BSA, 0.005%” for “7.4), 0.01%”, “Tween-20, 1” for “Tween-20, 5”, “mM MnCl2, 20” for “mM Na3VO4, 2 mM EGTA, 10”
The cMET protein was diluted to a concentration of 263 nM with a cMET storage buffer (50 mM Tris-HCl (pH 7.5), 150 mM NaCl, 0.05% Brij35, 1 mM DTT, 10% Glycerol), and then diluted again to a concentration of 2 nM with a 1× kinase reaction buffer. As a substrate cocktail, a MET-specific substrate mixture (5 uM TK peptide, […]) at a concentration 2 times the final reaction concentration.
Thereafter, a 384-well-plate was prepared, and 2.5 μl of each of the diluted compounds of Examples was added to a corresponding well of experimental group wells, and 2.5 μl of a 4% DMSO solution was dispensed into high control wells and low control wells.
as §2, with “of 2” for “of 0.4”, “nM cMET” for “nM RON”, “of 90” for “of 30”

Chain of RON (Q04912 25-1400, species assumed): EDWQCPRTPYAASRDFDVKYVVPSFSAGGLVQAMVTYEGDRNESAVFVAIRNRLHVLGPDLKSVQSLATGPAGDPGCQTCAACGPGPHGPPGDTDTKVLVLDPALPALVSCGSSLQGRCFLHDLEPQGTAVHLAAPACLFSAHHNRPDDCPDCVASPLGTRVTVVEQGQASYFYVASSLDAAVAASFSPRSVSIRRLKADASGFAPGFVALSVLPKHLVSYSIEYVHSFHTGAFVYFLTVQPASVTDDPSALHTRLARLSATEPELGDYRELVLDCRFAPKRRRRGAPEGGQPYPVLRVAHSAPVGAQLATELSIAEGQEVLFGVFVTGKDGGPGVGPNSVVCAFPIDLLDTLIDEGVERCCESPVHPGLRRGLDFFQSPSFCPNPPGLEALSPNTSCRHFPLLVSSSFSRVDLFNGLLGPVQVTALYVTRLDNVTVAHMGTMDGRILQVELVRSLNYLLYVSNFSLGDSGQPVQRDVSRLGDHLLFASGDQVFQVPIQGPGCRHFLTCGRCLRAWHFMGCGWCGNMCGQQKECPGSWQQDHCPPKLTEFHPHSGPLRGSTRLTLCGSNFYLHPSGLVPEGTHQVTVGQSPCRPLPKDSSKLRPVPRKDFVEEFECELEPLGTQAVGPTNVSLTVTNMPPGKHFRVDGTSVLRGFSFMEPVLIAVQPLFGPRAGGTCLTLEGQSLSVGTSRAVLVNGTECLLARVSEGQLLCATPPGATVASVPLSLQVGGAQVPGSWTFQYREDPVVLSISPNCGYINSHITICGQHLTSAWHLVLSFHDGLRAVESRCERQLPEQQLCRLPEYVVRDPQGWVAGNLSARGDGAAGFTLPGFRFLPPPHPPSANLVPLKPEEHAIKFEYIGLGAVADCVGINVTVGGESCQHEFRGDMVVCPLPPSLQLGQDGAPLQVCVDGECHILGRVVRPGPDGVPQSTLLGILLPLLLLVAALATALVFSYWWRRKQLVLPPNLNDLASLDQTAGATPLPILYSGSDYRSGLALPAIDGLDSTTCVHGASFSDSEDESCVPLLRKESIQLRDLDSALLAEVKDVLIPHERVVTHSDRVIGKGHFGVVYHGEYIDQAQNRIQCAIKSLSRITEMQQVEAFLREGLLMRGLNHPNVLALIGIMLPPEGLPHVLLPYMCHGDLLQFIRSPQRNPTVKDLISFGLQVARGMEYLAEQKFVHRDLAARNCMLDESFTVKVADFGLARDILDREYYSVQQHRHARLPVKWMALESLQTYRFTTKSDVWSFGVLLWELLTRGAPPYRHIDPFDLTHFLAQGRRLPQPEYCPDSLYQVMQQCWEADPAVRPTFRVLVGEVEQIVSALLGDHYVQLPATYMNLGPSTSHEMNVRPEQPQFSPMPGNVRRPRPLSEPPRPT

CC(C)n1c(=O)[nH]c2nccc(Oc3ccc(NC(=O)c4cnn(-c5ccccc5)c4-c4ccccc4)cc3F)c21 [Example 19, N-(3-fluoro-4-((1-isopropyl-2-oxo-2,3-dihydro-1H-imidazo[4,5-b]pyridine-7-yl)oxy)phenyl)-1,5-diphenyl-1H-pyrazole-4-carboxamide]
IC50 (RON): 50 to 500 nM | IC50 (cMET): 50 to 500 nM

CC(C)n1c(=O)[nH]c2nccc(Oc3ccc(NC(=O)c4cnn(C5CCCOC5)c4C(F)(F)F)cc3F)c21 (stereo not shown) [Example 20, N-(3-fluoro-4-((1-isopropyl-2-oxo-2,3-dihydro-1H-imidazo[4,5-b]pyridine-7-yl)oxy)phenyl)-1-(tetrahydro-2H-pyran-3-yl)-5-(trifluoromethyl)-1H-pyrazole-4-carboxamide]
IC50 (RON): < 50 nM | IC50 (cMET): 500 to 5000 nM

O=C(Nc1ccc(Oc2ccnc3[nH]c(=O)n(C4CCCC4)c23)c(F)c1)c1ncn(-c2ccccc2)c1C(F)(F)F [Example 21, N-(4-((1-cyclopentyl-2-oxo-2,3-dihydro-1H-imidazo[4,5-b]pyridine-7-yl)oxy)-3-fluorophenyl)-1-phenyl-5-(trifluoromethyl)-1H-imidazole-4-carboxamide]
IC50 (RON): < 50 nM | IC50 (cMET): 500 to 5000 nM

O=C(Nc1ccc(Oc2ccnc3[nH]c(=O)n(C4CCCC4)c23)c(F)c1)c1cnn(-c2ccccc2)c1C(F)(F)F [Example 22, N-(4-((1-cyclopentyl-2-oxo-2,3-dihydro-1H-imidazo[4,5-b]pyridine-7-yl)oxy)-3-fluorophenyl)-1-phenyl-5-(trifluoromethyl)-1H-pyrazole-4-carboxamide]
IC50 (RON): < 50 nM | IC50 (cMET): 500 to 5000 nM

CCc1c(C(=O)Nc2ccc(Oc3ccnc4[nH]c(=O)n(C5CCCC5)c34)c(F)c2)cnn1-c1ccccc1 [Example 23, N-(4-((1-cyclopentyl-2-oxo-2,3-dihydro-1H-imidazo[4,5-b]pyridine-7-yl)oxy)-3-fluorophenyl)-5-ethyl-1-phenyl-1H-pyrazole-4-carboxamide]
IC50 (RON): 50 to 500 nM | IC50 (cMET): 500 to 5000 nM

CC(C)n1c(=O)[nH]c2nccc(Oc3ccc(NC(=O)c4ccccc4C(F)(F)F)cc3F)c21 [Example 24, N-(3-fluoro-4-((1-isopropyl-2-oxo-2,3-dihydro-1H-imidazo[4,5-b]pyridine-7-yl)oxy)phenyl)-2-(trifluoromethyl)benzamide]
IC50 (RON): 500 to 5000 nM | IC50 (cMET): 500 to 5000 nM

CC(C)n1c(=O)[nH]c2nccc(Oc3ccc(NC(=O)c4ccc(Br)cc4C(F)(F)F)cc3F)c21 [Example 25, 4-bromo-N-(3-fluoro-4-((1-isopropyl-2-oxo-2,3-dihydro-1H-imidazo[4,5-b]pyridine-7-yl)oxy)phenyl)-2-(trifluoromethyl)benzamide]
IC50 (RON): 50 to 500 nM | IC50 (cMET): > 5000 nM

CC(C)n1c(=O)[nH]c2nccc(Oc3ccc(NC(=O)c4cnn(-c5cccc6ccccc56)c4C(F)(F)F)cc3F)c21 [Example 26, N-(3-fluoro-4-((1-isopropyl-2-oxo-2,3-dihydro-1H-imidazo[4,5-b]pyridine-7-yl)oxy)phenyl)-1-(naphthalene-1-yl)-5-(trifluoromethyl)-1H-pyrazole-4-carboxamide]
IC50 (RON): 50 to 500 nM | IC50 (cMET): 500 to 5000 nM

CC(C)n1c(=O)[nH]c2nccc(Oc3ccc(NC(=O)c4cccc(Br)c4C(F)(F)F)cc3F)c21 [Example 27, 3-bromo-N-(3-fluoro-4-((1-isopropyl-2-oxo-2,3-dihydro-1H-imidazo[4,5-b]pyridine-7-yl)oxy)phenyl)-2-(trifluoromethyl)benzamide]
IC50 (RON): 500 to 5000 nM | IC50 (cMET): > 5000 nM

CC(C)n1c(=O)[nH]c2nccc(Oc3ccc(NC(=O)c4cnn(C5CCCCC5)c4C(F)(F)F)cc3F)c21 [Example 28, 1-cyclohexyl-N-(3-fluoro-4-((1-isopropyl-2-oxo-2,3-dihydro-1H-imidazo[4,5-b]pyridine-7-yl)oxy)phenyl)-5-(trifluoromethyl)-1H-pyrazole-4-carboxamide]
IC50 (RON): < 50 nM | IC50 (cMET): 500 to 5000 nM

CC(C)n1c(=O)[nH]c2nccc(Oc3ccc(NC(=O)c4cnn(C5CCOCC5)c4C(F)(F)F)cc3F)c21 [Example 29, N-(3-fluoro-4-((1-isopropyl-2-oxo-2,3-dihydro-1H-imidazo[4,5-b]pyridine-7-yl)oxy)phenyl)-1-(tetrahydro-2H-pyran-4-yl)-5-(trifluoromethyl)-1H-pyrazole-4-carboxamide]
IC50 (RON): 50 to 500 nM | IC50 (cMET): 50 to 500 nM

CC(C)n1c(=O)[nH]c2nccc(Oc3ccc(NC(=O)c4cnn(C(C)(C)C)c4C(F)(F)F)cc3F)c21 [Example 30, 1-(tert-butyl)-N-(3-fluoro-4-((1-isopropyl-2-oxo-2,3-dihydro-1H-imidazo[4,5-b]pyridine-7-yl)oxy)phenyl)-5-(trifluoromethyl)-1H-pyrazole-4-carboxamide]
IC50 (RON): 50 to 500 nM | IC50 (cMET): 500 to 5000 nM

CC(C)n1c(=O)[nH]c2nccc(Oc3ccc(NC(=O)c4cnn(C5CCCCCC5)c4C(F)(F)F)cc3F)c21 [Example 31, 1-cycloheptyl-N-(3-fluoro-4-((1-isopropyl-2-oxo-2,3-dihydro-1H-imidazo[4,5-b]pyridine-7-yl)oxy)phenyl)-5-(trifluoromethyl)-1H-pyrazole-4-carboxamide]
IC50 (RON): < 50 nM | IC50 (cMET): 500 to 5000 nM

CC(C)n1c(=O)[nH]c2nccc(Oc3ccc(NC(=O)Cc4cnn(-c5ccccc5)c4C(F)(F)F)cc3F)c21 [Example 32, N-(3-fluoro-4-((1-isopropyl-2-oxo-2,3-dihydro-1H-imidazo[4,5-b]pyridine-7-yl)oxy)phenyl)-2-(1-phenyl-5-(trifluoromethyl)-1H-pyrazol-4-yl)acetamide]
IC50 (RON): 50 to 500 nM | IC50 (cMET): 500 to 5000 nM

CC(C)n1c(=O)[nH]c2nccc(Oc3ccc(NC(=O)c4cnn(C5CCCN(C)C5)c4C(F)(F)F)cc3F)c21 (stereo not shown) [Example 33, N-(3-fluoro-4-((1-isopropyl-2-oxo-2,3-dihydro-1H-imidazo[4,5-b]pyridine-7-yl)oxy)phenyl)-1-(1-methylpiperidine-3-yl)-5-(trifluoromethyl)-1H-pyrazole-4-carboxamide]
IC50 (RON): 50 to 500 nM | IC50 (cMET): 500 to 5000 nM

CC(C)n1c(=O)[nH]c2nccc(Oc3ccc(NC(=O)c4cnn(-c5ccccc5F)c4C(F)(F)F)cc3F)c21 [Example 34, N-(3-fluoro-4-((1-isopropyl-2-oxo-2,3-dihydro-1H-imidazo[4,5-b]pyridine-7-yl)oxy)phenyl)-1-(2-fluorophenyl)-5-(trifluoromethyl)-1H-pyrazole-4-carboxamide]
IC50 (RON): < 50 nM | IC50 (cMET): 500 to 5000 nM

CC(C)n1c(=O)[nH]c2nccc(Oc3ccc(NC(=O)c4cnn(-c5ccccc5Cl)c4C(F)(F)F)cc3F)c21 [Example 35, 1-(2chlorophenyl)-N-(3-fluoro-4-((1-isopropyl-2-oxo-2,3-dihydro-1H-imidazo[4,5-b]pyridine-7-yl)oxy)phenyl)-5-(trifluoromethyl)-1H-pyrazole-4-carboxamide]
IC50 (RON): < 50 nM | IC50 (cMET): 500 to 5000 nM
